Legend:
GABAB = GABAB (Rattus norvegicus, UniProt Q9Z0U4); assay: Receptor binding GABAB; details: read-out: Ki(nM) Compound 1
Experimental: (§1) Receptor binding data were obtained by CEREP (128, rue Danton, 92500 Rueil-Malmaison, France) or at Solvay Pharmaceuticals B.V., using well documented standard procedures. Affinity for 5-HT1A receptors for instance, was determined by testing the ability of the compounds of the invention to displace [^3H]-2-(di-n-propylamino)-8-hydroxytetralin ([^3H]-8-OH-DPAT) from its specific binding sites in rat frontal cortex homogenates. This test is based on the method described by Gozlan et al. (Nature, 305, (1983), pages 140-142).
(§2) The binding data collected in the table below were either obtained by CEREP (128, rue Danton, 92500 Rueil-Malmaison, France) or at Solvay Pharmaceuticals B.V., using well documented standard procedures.

sigma-SG2 = sigma-SG2 (Rattus norvegicus, UniProt Q5U3Y7); assay: Receptor binding sigma-SG2; details: radioligand [3H]-DTG, read-out: Ki(nM) Compound 1
Experimental: as §1, §2

κ-opiate = κ-opiate (Rattus norvegicus, UniProt P34975); assay: Receptor binding κ-opiate; details: radioligand [3H]-U 69593, read-out: Ki(nM) Compound 1
Experimental: as §1, §2

angiotensin-AT2 = angiotensin-AT2 (Homo sapiens, UniProt P50052); assay: Receptor binding angiotensin-AT2; details: radioligand [125I]-CPG 42112A, read-out: Ki(nM) Compound 1
Experimental: as §1, §2

Neurokinin-NK1 = Neurokinin-NK1 (Homo sapiens, UniProt P25103); assay: Receptor binding Neurokinin-NK1; details: radioligand [3H]-substance P, read-out: Ki(nM) Compound 1
Experimental: as §1, §2

sigma-SG1 = sigma-SG1 (Cavia porcellus, UniProt Q60492); assay: Receptor binding sigma-SG1; details: radioligand [3H]-pentazocone; guinea pig; read-out: Ki(nM) Compound 1
Experimental: as §1, §2

5-HT2C = 5-HT2C (Homo sapiens, UniProt P28335); assay: Receptor binding 5-HT2C; details: radioligand [125I]-DOI, read-out: Ki(nM) Compound 1
Experimental: as §1, §2

Neuropeptide Y2 = Neuropeptide Y2 (Homo sapiens, UniProt P49146); assay: Receptor binding Neuropeptide Y2; details: radioligand [125I]-PYY, read-out: Ki(nM) Compound 1
Experimental: as §1, §2

Dopamine-D4 = Dopamine-D4 (Homo sapiens, UniProt P21917); assay: Receptor binding Dopamine-D4; details: radioligand [3H]-spiperone, read-out: Ki(nM) Compound 1
Experimental: as §1, §2

Histamine-H2 = Histamine-H2 (Homo sapiens, UniProt P25021); assay: Receptor binding Histamine-H2; details: radioligand [125I]-APT, read-out: Ki(nM) Compound 1
Experimental: as §1, §2

Dopamine-D5 = Dopamine-D5 (Homo sapiens, UniProt P21918); assay: Receptor binding Dopamine-D5; details: radioligand [3H]-SCH 23390, read-out: Ki(nM) Compound 1
Experimental: as §1, §2

5-HT7 = 5-HT7 (Homo sapiens, UniProt P34969); assay: Receptor binding 5-HT7; details: radioligand [3H]-LSD, read-out: Ki(nM) Compound 1
Experimental: as §1, §2

CCKA = CCKA (Homo sapiens, UniProt P32238); assay: Receptor binding CCKA; details: radioligand [3H]-devazepide, read-out: Ki(nM) Compound 1
Experimental: as §1, §2

NAreuptake = NAreuptake (Homo sapiens, UniProt P23975); assay: Binding NA reuptake; details: radioligand [3H]-nisoxetin, read-out: Ki(nM) Compound 1
Experimental: as §1, §2

Ca++-channel = Ca++-channel (Rattus norvegicus, UniProt Q02294); assay: biochemical; assay type: binding
Galanin-GAL2 = Galanin-GAL2 (Homo sapiens, UniProt O43603); assay: Receptor binding Galanin-GAL2; details: radioligand [125I]-galanin, read-out: Ki(nM) Compound 1
Experimental: as §1, §2

BDNF = assay: Induction of growth factors: BDNF RNA in brain areas by quantitative PCR; assay type: in vivo; details: 3 mg/kg p.o. once daily, 3 weeks
Experimental: Compounds of the invention (3 mg/kg, p.o.) or vehicle are administered once daily during a period of 3 weeks (n=8 animals per treatment group). 24 hours after the last dose the animals are sacrificed (using CO2/O2 anesthesia), the brains are removed and the dissected. RNA is extracted from the individual brain samples and induction of the growth factors BDNF and GDNF is determined by quantitative PCR. Total RNA is isolated with the Trizol method (Invitrogen) from the brain pieces. cDNA is made starting with 2 μg of total RNA (pretreated for 30 min with DNAse (Ambion) in first strand buffer) using the reverse transcriptase Superscript II (Invitrogen). Quantification of […] by real time PCR makes use of the observation that the early cycles of PCR are characterized by an exponential increase in target amplification. The accumulation of PCR product is measured using Sybergreen II. Primers are designed using the software package Primer Express (Applied Biosystems). Expression levels of the housekeeping genes ornithine decarboxylase (ODC_ex8) and alpha tubulin (TUBA) used for normalization and as control for good cDNA synthesis.

LTD4 = LTD4 (Cavia porcellus, UniProt Q2NNR5); assay: Receptor binding LTD4; details: radioligand [3H]-LTD4; guinea pig; read-out: Ki(nM) Compound 1
Experimental: as §1, §2

cannabinoid-CB1 = cannabinoid-CB1 (Homo sapiens, UniProt P21554); assay: Receptor binding cannabinoid-CB1; details: radioligand [3H]-WIN 55,212-2, read-out: Ki(nM) Compound 1
Experimental: as §1, §2

5-HT1A = 5-HT1A (Homo sapiens, UniProt P08908); assay: Receptor binding 5-HT1A; details: radioligand [3H]-8-OH-DPAT, read-out: Ki(nM) Compound 1
Muscarine-M2 = Muscarine-M2 (Homo sapiens, UniProt P08172); assay: Receptor binding Muscarine-M2; details: radioligand [3H]-AFDX-384, read-out: Ki(nM) Compound 1
Experimental: as §1, §2

LTB4 = LTB4 (Cavia porcellus, UniProt H0VYV8); assay: Receptor binding LTB4; details: radioligand [3H]-LTB4; guinea pig; read-out: Ki(nM) Compound 1
Experimental: as §1, §2

angiotensin-AT1 = angiotensin-AT1 (Homo sapiens, UniProt P30556); assay: Receptor binding angiotensin-AT1; details: radioligand [125I]-angiotensin II, read-out: Ki(nM) Compound 1
Experimental: as §1, §2

Sequence of sigma-SG1 (Q60492 whole entry): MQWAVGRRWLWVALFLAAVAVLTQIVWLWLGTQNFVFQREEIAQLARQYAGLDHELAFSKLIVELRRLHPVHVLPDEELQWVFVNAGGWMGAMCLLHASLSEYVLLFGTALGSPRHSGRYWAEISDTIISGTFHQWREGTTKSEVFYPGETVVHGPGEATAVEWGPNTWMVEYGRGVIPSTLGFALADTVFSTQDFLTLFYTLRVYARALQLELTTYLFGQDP
Sequence of LTD4 (Q2NNR5 whole entry): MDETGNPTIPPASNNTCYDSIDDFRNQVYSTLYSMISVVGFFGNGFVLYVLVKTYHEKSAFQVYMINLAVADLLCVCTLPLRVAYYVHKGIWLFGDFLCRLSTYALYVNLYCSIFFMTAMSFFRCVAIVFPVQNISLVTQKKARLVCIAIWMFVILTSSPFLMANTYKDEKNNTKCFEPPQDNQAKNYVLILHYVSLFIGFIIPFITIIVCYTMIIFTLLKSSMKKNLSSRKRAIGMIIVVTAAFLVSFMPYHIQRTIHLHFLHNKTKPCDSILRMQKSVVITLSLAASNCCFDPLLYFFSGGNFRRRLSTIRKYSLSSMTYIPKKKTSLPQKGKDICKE
Sequence of 5-HT1A (P08908 whole entry): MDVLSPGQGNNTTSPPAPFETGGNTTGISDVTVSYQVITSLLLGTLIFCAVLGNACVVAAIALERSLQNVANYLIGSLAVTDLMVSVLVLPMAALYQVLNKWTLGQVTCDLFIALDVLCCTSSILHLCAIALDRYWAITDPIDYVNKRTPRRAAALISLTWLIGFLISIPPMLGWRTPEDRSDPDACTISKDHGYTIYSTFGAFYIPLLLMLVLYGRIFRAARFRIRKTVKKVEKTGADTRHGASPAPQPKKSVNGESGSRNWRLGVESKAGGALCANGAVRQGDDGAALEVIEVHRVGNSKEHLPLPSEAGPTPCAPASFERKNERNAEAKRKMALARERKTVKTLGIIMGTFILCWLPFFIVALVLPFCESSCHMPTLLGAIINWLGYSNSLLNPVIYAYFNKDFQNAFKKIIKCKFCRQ
Sequence of 5-HT2C (P28335 33-458): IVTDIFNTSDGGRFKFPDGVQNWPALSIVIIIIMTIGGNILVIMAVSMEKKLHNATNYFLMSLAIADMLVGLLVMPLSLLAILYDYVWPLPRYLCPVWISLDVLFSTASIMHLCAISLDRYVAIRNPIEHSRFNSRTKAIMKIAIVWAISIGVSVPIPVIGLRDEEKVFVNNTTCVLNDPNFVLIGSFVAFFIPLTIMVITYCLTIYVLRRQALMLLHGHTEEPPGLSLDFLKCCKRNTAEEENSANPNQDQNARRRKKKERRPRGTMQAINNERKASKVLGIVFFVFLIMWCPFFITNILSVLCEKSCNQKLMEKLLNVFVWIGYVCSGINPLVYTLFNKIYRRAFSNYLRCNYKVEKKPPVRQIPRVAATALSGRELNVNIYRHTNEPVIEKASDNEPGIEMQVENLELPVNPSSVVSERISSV
Sequence of Histamine-H2 (P25021 whole entry): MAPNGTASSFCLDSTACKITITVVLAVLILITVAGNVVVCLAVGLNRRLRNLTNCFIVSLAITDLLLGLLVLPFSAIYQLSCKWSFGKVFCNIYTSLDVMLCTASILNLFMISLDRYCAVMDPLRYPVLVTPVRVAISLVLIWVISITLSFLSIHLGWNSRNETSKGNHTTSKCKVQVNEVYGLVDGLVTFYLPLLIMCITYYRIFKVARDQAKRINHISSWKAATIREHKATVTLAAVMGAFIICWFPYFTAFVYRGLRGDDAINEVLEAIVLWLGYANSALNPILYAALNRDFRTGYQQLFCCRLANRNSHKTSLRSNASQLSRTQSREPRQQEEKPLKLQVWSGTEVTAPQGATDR
Sequence of κ-opiate (P34975 whole entry): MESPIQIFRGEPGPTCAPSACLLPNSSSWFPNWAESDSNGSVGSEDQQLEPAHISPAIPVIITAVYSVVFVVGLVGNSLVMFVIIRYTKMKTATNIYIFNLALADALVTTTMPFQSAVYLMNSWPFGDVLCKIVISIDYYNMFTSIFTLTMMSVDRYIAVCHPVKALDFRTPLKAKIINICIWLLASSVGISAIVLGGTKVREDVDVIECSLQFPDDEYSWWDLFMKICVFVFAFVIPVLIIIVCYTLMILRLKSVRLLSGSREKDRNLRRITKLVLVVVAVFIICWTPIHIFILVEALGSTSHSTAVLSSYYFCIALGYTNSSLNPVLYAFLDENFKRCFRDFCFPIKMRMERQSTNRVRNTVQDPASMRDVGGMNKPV
Sequence of Dopamine-D4 (P21917 whole entry): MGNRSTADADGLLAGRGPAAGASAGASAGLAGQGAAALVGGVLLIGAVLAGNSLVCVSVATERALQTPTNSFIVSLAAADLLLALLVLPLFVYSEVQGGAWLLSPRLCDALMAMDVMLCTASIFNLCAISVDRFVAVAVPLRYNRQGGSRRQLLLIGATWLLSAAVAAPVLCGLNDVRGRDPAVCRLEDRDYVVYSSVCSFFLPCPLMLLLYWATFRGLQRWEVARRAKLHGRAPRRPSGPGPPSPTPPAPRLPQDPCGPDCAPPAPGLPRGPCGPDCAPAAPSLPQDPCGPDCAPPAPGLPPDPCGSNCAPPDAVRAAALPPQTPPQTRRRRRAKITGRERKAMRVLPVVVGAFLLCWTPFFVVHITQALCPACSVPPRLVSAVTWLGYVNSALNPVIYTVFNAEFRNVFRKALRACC
Sequence of Dopamine-D5 (P21918 whole entry): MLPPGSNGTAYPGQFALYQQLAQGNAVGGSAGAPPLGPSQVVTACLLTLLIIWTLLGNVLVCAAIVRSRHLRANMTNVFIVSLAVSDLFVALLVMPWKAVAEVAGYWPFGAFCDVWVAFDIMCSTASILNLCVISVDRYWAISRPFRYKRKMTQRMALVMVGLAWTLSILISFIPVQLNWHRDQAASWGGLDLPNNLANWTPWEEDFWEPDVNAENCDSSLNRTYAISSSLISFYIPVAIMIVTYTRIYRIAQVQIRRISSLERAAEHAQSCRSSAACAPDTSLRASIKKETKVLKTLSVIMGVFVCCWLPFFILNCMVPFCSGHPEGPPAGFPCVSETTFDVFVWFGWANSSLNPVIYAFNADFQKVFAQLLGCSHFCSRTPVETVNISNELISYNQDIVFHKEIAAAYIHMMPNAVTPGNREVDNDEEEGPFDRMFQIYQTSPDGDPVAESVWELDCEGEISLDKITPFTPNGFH
Sequence of Galanin-GAL2 (O43603 whole entry): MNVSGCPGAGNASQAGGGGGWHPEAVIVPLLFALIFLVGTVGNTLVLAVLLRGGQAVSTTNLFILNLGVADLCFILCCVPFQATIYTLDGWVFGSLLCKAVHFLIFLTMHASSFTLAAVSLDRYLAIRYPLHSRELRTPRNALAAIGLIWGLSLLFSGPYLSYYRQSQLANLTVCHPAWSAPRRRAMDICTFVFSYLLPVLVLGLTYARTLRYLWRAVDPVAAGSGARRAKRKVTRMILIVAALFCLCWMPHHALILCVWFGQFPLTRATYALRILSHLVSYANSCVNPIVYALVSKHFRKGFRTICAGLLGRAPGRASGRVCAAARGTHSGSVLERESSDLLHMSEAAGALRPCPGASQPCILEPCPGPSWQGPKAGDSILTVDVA
Sequence of NAreuptake (P23975 whole entry): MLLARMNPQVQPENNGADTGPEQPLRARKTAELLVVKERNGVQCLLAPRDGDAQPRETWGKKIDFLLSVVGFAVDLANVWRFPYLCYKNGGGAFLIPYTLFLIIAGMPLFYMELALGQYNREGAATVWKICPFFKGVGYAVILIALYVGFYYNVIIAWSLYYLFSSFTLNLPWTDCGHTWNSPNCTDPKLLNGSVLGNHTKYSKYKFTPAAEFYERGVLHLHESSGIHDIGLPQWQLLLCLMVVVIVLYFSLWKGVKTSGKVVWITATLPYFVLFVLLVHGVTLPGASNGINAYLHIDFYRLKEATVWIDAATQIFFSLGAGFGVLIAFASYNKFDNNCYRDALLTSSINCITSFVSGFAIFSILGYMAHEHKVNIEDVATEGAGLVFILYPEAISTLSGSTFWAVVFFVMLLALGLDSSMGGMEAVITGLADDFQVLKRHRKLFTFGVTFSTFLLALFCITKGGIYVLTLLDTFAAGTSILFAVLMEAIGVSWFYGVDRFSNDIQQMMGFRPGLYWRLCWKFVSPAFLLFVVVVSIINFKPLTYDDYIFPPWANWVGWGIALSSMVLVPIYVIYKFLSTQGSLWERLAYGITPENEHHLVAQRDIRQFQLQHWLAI
Sequence of Neuropeptide Y2 (P49146 whole entry): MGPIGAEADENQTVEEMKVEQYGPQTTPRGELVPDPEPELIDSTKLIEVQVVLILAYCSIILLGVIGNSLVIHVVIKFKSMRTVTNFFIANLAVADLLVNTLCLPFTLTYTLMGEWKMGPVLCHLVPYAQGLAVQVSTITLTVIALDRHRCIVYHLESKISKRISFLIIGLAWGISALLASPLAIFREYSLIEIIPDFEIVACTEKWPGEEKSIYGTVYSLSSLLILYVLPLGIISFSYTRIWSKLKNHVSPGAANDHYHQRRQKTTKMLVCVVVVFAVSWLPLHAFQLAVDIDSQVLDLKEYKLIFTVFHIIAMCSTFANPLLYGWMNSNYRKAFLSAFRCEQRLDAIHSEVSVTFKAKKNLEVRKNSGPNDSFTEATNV
Sequence of angiotensin-AT1 (P30556 whole entry): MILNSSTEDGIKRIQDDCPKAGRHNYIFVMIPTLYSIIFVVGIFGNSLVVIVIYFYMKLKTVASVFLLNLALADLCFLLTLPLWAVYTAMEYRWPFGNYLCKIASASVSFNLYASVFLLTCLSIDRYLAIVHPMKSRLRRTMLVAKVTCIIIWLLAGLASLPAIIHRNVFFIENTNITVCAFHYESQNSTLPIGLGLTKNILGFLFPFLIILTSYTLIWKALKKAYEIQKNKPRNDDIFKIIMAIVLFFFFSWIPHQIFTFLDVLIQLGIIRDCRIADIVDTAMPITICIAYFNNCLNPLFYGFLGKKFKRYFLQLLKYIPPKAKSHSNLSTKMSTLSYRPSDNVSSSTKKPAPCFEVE

Nc1cc2cccc(N3CCNCC3)c2oc1=O [Compound 1, 3-amino-8-(1-piperazinyl)-2H-1-benzopyran-2-one]
Ki (GABAB): > 1000 nM
Ki (sigma-SG2): > 1000 nM
Ki (κ-opiate): > 1000 nM
Ki (angiotensin-AT2): > 1000 nM
Ki (Neurokinin-NK1): > 1000 nM
Ki (sigma-SG1): > 1000 nM
Ki (5-HT2C): > 1000 nM
Ki (Neuropeptide Y2): > 1000 nM
Ki (Dopamine-D4): > 1000 nM
Ki (Histamine-H2): > 1000 nM
Ki (Dopamine-D5): > 1000 nM
Ki (5-HT7): 3.2 nM
Ki (CCKA): > 1000 nM
Ki (NAreuptake): > 1000 nM
Ki (Ca++-channel): > 1000 nM
Ki (Galanin-GAL2): > 1000 nM
BDNF RNA, fold increase compared to vehicle treatment (BDNF; hippocampus): 2.4 fold
BDNF RNA, fold increase compared to vehicle treatment (BDNF; nucleus accumbens): 5.1 fold
BDNF RNA, fold increase compared to vehicle treatment (BDNF; prefrontal cortex): 2.1 fold
BDNF RNA, fold increase compared to vehicle treatment (BDNF; striatum): 1.8 fold
BDNF RNA, fold increase compared to vehicle treatment (BDNF; thalamus): 2.3 fold
Ki (LTD4): > 10000 nM
Ki (cannabinoid-CB1): > 10000 nM
Ki (5-HT1A): 0.25 nM
Ki (Muscarine-M2): > 1000 nM
Ki (LTB4): > 10000 nM
Ki (angiotensin-AT1): > 1000 nM
